Reference: patent EP4725946A1, “IRAK4 DEGRADATION AGENT AND USE THEREOF” (Guangzhou Unirise Pharmaceutical Co., Ltd., priority 2023, dated 2024)
Where two headings read alike, the source gives them in different places.

Target: T1, IRAK4 protein (Homo sapiens, UniProt Q9NWZ3)
T1 sequence (Q9NWZ3 1-460): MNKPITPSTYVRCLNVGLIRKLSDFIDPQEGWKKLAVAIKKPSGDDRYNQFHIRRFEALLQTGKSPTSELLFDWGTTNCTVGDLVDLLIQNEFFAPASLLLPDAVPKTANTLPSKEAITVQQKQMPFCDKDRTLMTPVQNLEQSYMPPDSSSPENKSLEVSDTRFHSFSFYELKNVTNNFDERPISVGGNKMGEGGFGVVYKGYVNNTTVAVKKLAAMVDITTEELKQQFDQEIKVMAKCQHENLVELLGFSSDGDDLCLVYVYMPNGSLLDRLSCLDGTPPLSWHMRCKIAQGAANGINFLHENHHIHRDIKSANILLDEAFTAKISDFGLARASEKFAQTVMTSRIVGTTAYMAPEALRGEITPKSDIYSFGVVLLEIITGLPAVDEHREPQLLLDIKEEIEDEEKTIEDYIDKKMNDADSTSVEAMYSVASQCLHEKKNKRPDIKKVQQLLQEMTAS
Experiment: IRAK4 Degradation Assay in THP-1 Cells (Western Blot)
Type: cell-based
Parameters: endogenous in cells; host or cells: THP-1 cells
Conditions: 24 hours, 0.0128 to 1000 nM, IRAK4 protein level by Western Blot; for Dmax: read-out: Dmax%
Description: In a 6-well cell culture plate, an appropriate number of THP-1 cells were seeded. The plate was placed in a 5% CO2 incubator at 37°C for overnight culture. Then, the test compound's dimethyl sulfoxide solution was added, with the final concentration ranging from 0.0128 to 1000 nM. After continuous culture for 24 hours, the culture medium was removed, and the cells were collected in a 1.5 mL centrifuge tube. After adding lysis buffer and grinding thoroughly, the mixture was placed on ice for 30 minutes. It was then centrifuged at 15,000 xg and 4°C for 20 minutes. The supernatant was taken, and the level of IRAK4 protein was detected by Western Blot.

Cc1cc(-c2nc(C(=O)Nc3cc4c(cc3N3CCC(O)CC3)OC3(CCN(C[C@H]5CC[C@H](OCC#Cc6cccc7c6n(C)c(=O)n7C6CCC(=O)NC6=O)CC5)CC3)C4)co2)ccn1 (stereo partly shown) [Example 88] showed a DC50 (THP-1 cells, read-out: DC50) of 5.4 nM and a Dmax (THP-1 cells) of 89%.
Cn1c(=O)n(C2CCC(=O)NC2=O)c2cccc(CN3CCC(CCN4CCC5(CC4)Oc4cc(NC(=O)c6coc7cccnc67)c(N6CCC(CO)CC6)cc4O5)CC3)c21 (stereo not shown) [Compound 14] was tested, and the DC50 (THP-1 cells, read-out: DC50) was 3.4 nM and the Dmax (THP-1 cells) was 89.2%.
For Cn1c(=O)n(C2CCC(=O)NC2=O)c2cccc(C#CCOC3CCN(CCN4CCC5(CC4)Cc4cc(NC(=O)c6cnn7cccnc67)c(N6CCC(CO)CC6)cc4O5)CC3)c21 (stereo not shown) [Compound 19], the Dmax (THP-1, THP-1 cells) was 87.9% and the DC50 (THP-1 cells, read-out: DC50) was 2.18 nM.
Molecule O=C1CCC(N2C(=O)c3ccc(N4CCC(CN5CCC6(CC5)Cc5cc(NC(=O)c7cnn8cccnc78)c(N7CCC(CO)CC7)cc5O6)CC4)cc3C2=O)C(=O)N1 (stereo not shown) [Example 82] has a Dmax (THP-1, THP-1 cells) of 85.6% and a DC50 (THP-1 cells, read-out: DC50) of 3.44 nM.
Work on Cn1c(=O)n(C2CCC(=O)NC2=O)c2cccc(C#CCO[C@H]3CC[C@H](CN4CCC5(Cc6cc(NC(=O)c7cnn8cccnc78)c(N7CCC(CO)CC7)cc6O5)C4)CC3)c21 (stereo partly shown) [Compound 51] yielded a DC50 (THP-1 cells, read-out: DC50) of 2 nM and a Dmax (THP-1 cells) of 83.9%.
Cn1c(=O)n(C2CCC(=O)NC2=O)c2cccc(CN3CCC(CCN4CCC5(CC4)Cc4cc(NC(=O)c6coc7cccnc67)c(N6CCC(CO)CC6)cc4O5)CC3)c21 (stereo not shown) [Compound 3] was tested, and the DC50 (THP-1 cells, read-out: DC50) was 4.14 nM and the Dmax (THP-1 cells) was 93.5%.
Cn1c(=O)n(C2CCC(=O)NC2=O)c2cccc(C#CCOC3CCN(CCN4CCC5(CC4)Oc4cc(NC(=O)c6cnn7cccnc67)c(N6CCC(CO)CC6)cc4O5)CC3)c21 (stereo not shown) [Compound 28] gave a DC50 (THP-1 cells, read-out: DC50) of 3.38 nM and a Dmax (THP-1 cells) of 86.5%.
Cn1c(=O)n(C2CCC(=O)NC2=O)c2cccc(CN3CC4(CCN(CCN5CCC6(CC5)Cc5cc(NC(=O)c7cnn8cccnc78)c(N7CCC(CO)CC7)cc5O6)CC4)C3)c21 (stereo not shown) [Compound 33] was tested, and the DC50 (THP-1 cells) was 1.66 nM and the Dmax (THP-1 cells) was 94.8%.
Molecule Cn1c(=O)n(C2CCC(=O)NC2=O)c2cccc(C#CCO[C@H]3CC[C@H](CN4CCC5(CC4)Cc4cc(NC(=O)c6coc7cccnc67)c(N6CCC(CO)CC6)cc4C5)CC3)c21 (stereo partly shown) [Compound 52] has a DC50 (THP-1 cells, read-out: DC50) of 5.25 nM and a Dmax (THP-1 cells) of 89.2%.
With O=C1CCC(N2C(=O)c3cc(F)c(N4CCC(CN5CCC6(CC5)Cc5cc(NC(=O)c7cnn8cccnc78)c(N7CCC(CO)CC7)cc5O6)CC4)cc3C2=O)C(=O)N1 (stereo not shown) [Example 97] the Dmax (THP-1, THP-1 cells) was 87.9% and the DC50 (THP-1 cells, read-out: DC50) was 7.85 nM.
With Cn1c(=O)n(C2CCC(=O)NC2=O)c2cccc(N3CCC(CCN4CCC5(CC4)Cc4cc(NC(=O)c6cnn7cccnc67)c(N6CCC(CO)CC6)cc4O5)CC3)c21 (stereo not shown) [Example 96] the Dmax (THP-1, THP-1 cells) was 92% and the DC50 (THP-1 cells, read-out: DC50) was 1.65 nM.
With O=C1CCC(N2C(=O)c3cc(F)c(N4CCC(CCN5CCC6(CC5)Cc5cc(NC(=O)c7cnn8cccnc78)c(N7CCC(CO)CC7)cc5O6)CC4)cc3C2=O)C(=O)N1 (stereo not shown) [Compound 72] the Dmax (THP-1, THP-1 cells) was 92.6% and the DC50 (THP-1 cells, read-out: DC50) was 7.7 nM.
Cn1c(=O)n(C2CCC(=O)NC2=O)c2cccc(C3CC(CN4CCC5(CC4)Cc4cc(NC(=O)c6cnn7cccnc67)c(N6CCC(CO)CC6)cc4O5)C3)c21 (stereo not shown) [Example 80] showed a Dmax (THP-1, THP-1 cells) of 83.4% and a DC50 (THP-1 cells, read-out: DC50) of 0.64 nM.
Cn1c(=O)n(C2CCC(=O)NC2=O)c2cccc(C#CCO[C@H]3CC[C@@H](CN4CCC5(CC4)Cc4cc(NC(=O)c6coc7cccnc67)c(N6CCC(CO)CC6)cc4O5)CC3)c21 (stereo partly shown) [Compound 56] gave a DC50 (THP-1 cells, read-out: DC50) of 7.79 nM and a Dmax (THP-1 cells) of 90.4%.
Work on Cc1cc(-c2nc(C(=O)Nc3cc4c(cc3N3CCC(CO)CC3)OC3(CCN(C[C@H]5CC[C@H](OCC#Cc6cccc7c6n(C)c(=O)n7C6CCC(=O)NC6=O)CC5)CC3)C4)co2)ccn1 (stereo partly shown) [Example 89] yielded a DC50 (THP-1 cells, read-out: DC50) of 6.02 nM and a Dmax (THP-1 cells) of 84.6%.
Cn1c(=O)n(C2CCC(=O)NC2=O)c2cccc(C#CCO[C@H]3CC[C@H](C(=O)N4CCC5(CC4)Cc4cc(NC(=O)c6cnn7cccnc67)c(N6CCC(CO)CC6)cc4O5)CC3)c21 (relative stereo) [Compound 74] was tested, and the Dmax (THP-1, THP-1 cells) was 86.2% and the DC50 (THP-1 cells, read-out: DC50) was 2.78 nM.
COC1(CN2CCC3(CC2)Cc2cc(NC(=O)c4cnn5cccnc45)c(N4CCC(CO)CC4)cc2O3)CCN(c2cccc3c2n(C)c(=O)n3C2CCC(=O)NC2=O)CC1 (stereo not shown) [Example 79] gave a Dmax (THP-1, THP-1 cells) of 89.5% and a DC50 (THP-1 cells, read-out: DC50) of 1.55 nM.
